Here are results for 26 compounds from US20220081415A1, “Amino Acid Derivatives for the Treatment of Inflammatory Diseases” (The Roskamp Institute, priority 2019, published 2022).

Molecules are shown by their SMILES. Where a name gives a salt, the structure may show the parent alone.

In the assay the test system is NF-kB activation induced by TNFα. The experiment in a line: TNFα Luciferase assay: inhibition of NF-kB activation induced by TNFα in HEK293/NF-kB luciferase cells. In kind it is cell-based. The note with it: Homo sapiens, 4 h, 25 ng/ml of TNF-α for four hours, quadruplicate, read-out: IC50, concentration at which NF-kB activation was reduced by 50%. Here is the method:
Determination of Inhibition of NF-kB Activation Induced by TNFα . . . In Vitro Assay
The ability of a compound disclosed herein to inhibit NFkB activation induced by TNFα was determined using the TNFα Luciferase assay. The HEK293/NF-kB luciferase cell line was obtained by cotransfection of pNFkB-luc vector with pHyg (Panomics, CA, USA) followed by hygromycin selection. HEK293/NFkB Luciferase cells were grown in DMEM medium supplemented with 10% fetal bovine serum, 100 U/ml of penicillin, 100 ng/ml of streptomycin/Fungizone, and 100 μg/ml of hygromycin B as the selecting agent. HEK293 NFkB Luciferase cells were grown in T75 flasks (Nunc™ Cell Culture Treated EasYFlasks™) in a cell culture incubator at 37° C. and 5% CO2.
Confluent T75 cell culture flasks (approximately 8-10 million of cells per flask) were washed with 10 ml of sterile PBS (without calcium and magnesium) under a biosafety cabinet. After aspiration of the PBS with a sterile glass pipette, the layer of cells (for each T75 flask) was covered with 1 ml of TrypLE™ Express without phenol red (Gibco) at room temperature. After one minute of incubation, HEK293 were mechanically resuspended in the TrypLE by tapping the side of the flask. The cells were then resuspended with 10 ml of pre-warmed complete culture medium and transferred to a conical tube. Cells were centrifuged for 5 minutes at 4000 rpm (1000 g) at room temperature. The cellular pellet was resuspended with 24 ml of pre-warmed cell culture media and […] of cell suspension (approximately 80,000 cells per well) was plated per well in 96-well cell culture plates (Costar #3599, Corning, N.Y., USA) using a multichannel pipette and reversed pipetting to prevent air bubble formation. After plating, the cells were maintained overnight in the cell culture incubator before being treated. For each 96 well cell culture plate, 8 wells were used as “control wells” (only culture medium added) and to 8 wells only TNFα was added. The NF-kB Luciferase reporter cell line was challenged with 25 ng/ml of TNF-α for four hours in the presence and absence (control conditions) of a dose range of the different compounds to be tested. For each compound, a dose range of concentrations was tested in quadruplicate and used to determine an IC50.
Luciferase activity was monitored using the Luc-Screen® Extended-Glow Luciferase Reporter Gene Assay System by chemoluminescence according to the instruction of the manufacturer (Invitrogen) and a BioTek Synergy HT plate reader (BioTek Instruments, VT, USA).
For `COc1cc(C(=O)N[C@@H](Cc2ccccc2)C(=O)N2CC=CCC2c2cccnc2)ccc1F` (stereo partly drawn) [Compound 34, 4-fluoro-3-methoxy-N-((2S)-1-oxo-3-phenyl-1-(6-(pyridin-3-yl)-5,6-dihydropyridin-1(2H)-yl)propan-2-yl)benzamide], the IC50 is 2500 nM.

In the case of `COc1cccc(C(=O)N[C@@H](Cc2ccccc2)C(=O)N2CC=CCC2c2cccnc2)c1` (stereo partly drawn) [Compound 35, 3-methoxy-N-((2S)-1-oxo-3-phenyl-1-(6-(pyridin-3-yl)-5,6-dihydropyridin-1(2H)-yl)propan-2-yl)benzamide], the IC50 was found to be 1600 nM.

Turning to `CCCCC(=O)Nc1cccc(C(=O)NC(Cc2ccccc2)C(=O)N2CC=CCC2c2cccnc2)c1` (centres unmarked) [Compound 36, N-(1-oxo-3-phenyl-1-(6-(pyridin-3-yl)-5,6-dihydropyridin-1(2H)-yl)propan-2-yl)-3-pentanamidobenzamide], the IC50 is 150 nM.

On to `CCCC(=O)Nc1cccc(C(=O)NC(Cc2ccccc2)C(=O)N2CC=CCC2c2cccnc2)c1` (centres unmarked) [Compound 37, 3-butyramido-N-(1-oxo-3-phenyl-1-(6-(pyridin-3-yl)-5,6-dihydropyridin-1(2H)-yl)propan-2-yl)benzamide], for which the IC50 turned out to be 125 nM.

Take `Nc1cccc(C(=O)NC(Cc2ccccc2)C(=O)N2CC=CCC2c2cccnc2)c1` (centres unmarked) [Compound 38, 3-amino-N-(1-oxo-3-phenyl-1-(6-(pyridin-3-yl)-5,6-dihydropyridin-1(2H)-yl)propan-2-yl)benzamide]: the IC50 is 250 nM.

On to `CC(=O)Nc1cccc(C(=O)NC(Cc2ccccc2)C(=O)N2CC=CCC2c2cccnc2)c1` (centres unmarked) [Compound 39, 3-acetamido-N-(1-oxo-3-phenyl-1-(6-(pyridin-3-yl)-5,6-dihydropyridin-1(2H)-yl)propan-2-yl)benzamide], for which the IC50 was 210 nM.

On to `CCCC(=O)Nc1cccc(C(=O)NC(Cc2ccccc2)C(=O)N2CC=CCC2c2cnc3ccccc3c2)c1` (centres unmarked) [Compound 40, 3-butyramido-N-(1-oxo-3-phenyl-1-(2-(quinolin-3-yl)-3,6-dihydropyridin-1(2H)-yl)propan-2-yl)benzamide], for which the IC50 was 40 nM.

`O=C(CCCC[C@@H]1SC[C@@H]2NC(=O)N[C@@H]21)Nc1cccc(C(=O)N[C@@H](Cc2ccccc2)C(=O)N2CC=CCC2c2cccnc2)c1` (stereo partly drawn) [Compound 41, 3-{5-[(3aS,4S,6aR)-2-oxo-hexahydro-1H-thieno[3,4-d]imidazol-4-yl]pentanamido}-N-[(2S)-1-oxo-3-phenyl-1-{1,2,3,6-tetrahydro-[2,3′-bipyridin]-1-yl}propan-2-yl]benzamide]: the IC50 was 250 nM.

Take `CC(C)CC(=O)Nc1cccc(C(=O)N[C@@H](Cc2ccccc2)C(=O)N2CC=CCC2c2cccnc2)c1` (stereo partly drawn) [Compound 42, 3-(3-methylbutanamido)-N-((2S)-1-oxo-3-phenyl-1-(6-(pyridin-3-yl)-5,6-dihydropyridin-1(2H)-yl)propan-2-yl)benzamide]: the IC50 turned out to be 86.9 nM.

Regarding `CC(C)(C)C(=O)Nc1cccc(C(=O)N[C@@H](Cc2ccccc2)C(=O)N2CC=CCC2c2cccnc2)c1` (stereo partly drawn) [Compound 43, N-((2S)-1-oxo-3-phenyl-1-(6-(pyridin-3-yl)-5,6-dihydropyridin-1(2H)-yl)propan-2-yl)-3-pivalamidobenzamide], the IC50 turned out to be 129 nM.

`O=C(N[C@@H](Cc1ccccc1)C(=O)N1CC=CCC1c1cccnc1)c1cccc(NC(=O)C2CC2)c1` (stereo partly drawn) [Compound 44, 3-(cyclopropanecarboxamido)-N-((2S)-1-oxo-3-phenyl-1-(6-(pyridin-3-yl)-5,6-dihydropyridin-1(2H)-yl)propan-2-yl)benzamide]: the IC50 was determined as 80.2 nM.

For the compound `O=C(N[C@@H](Cc1ccccc1)C(=O)N1CC=CCC1c1cccnc1)c1cccc(NC(=O)C2CCC2)c1` (stereo partly drawn) [Compound 45, 3-(cyclobutanecarboxamido)-N-((2S)-1-oxo-3-phenyl-1-(6-(pyridin-3-yl)-5,6-dihydropyridin-1(2H)-yl)propan-2-yl)benzamide], the IC50 was 75.4 nM.

With `O=C(N[C@@H](Cc1ccccc1)C(=O)N1CC=CCC1c1cccnc1)c1cccc(NC(=O)C2CCCC2)c1` (stereo partly drawn) [Compound 46, 3-(cyclopentanecarboxamido)-N-((2S)-1-oxo-3-phenyl-1-(6-(pyridin-3-yl)-5,6-dihydropyridin-1(2H)-yl)propan-2-yl)benzamide], the IC50 came out at 58.5 nM.

In the case of `CCCC(=O)Nc1ccccc1C(=O)N[C@@H](Cc1ccccc1)C(=O)N1CC=CCC1c1cccnc1` (stereo partly drawn) [Compound 47, 2-butyramido-N-((2S)-1-oxo-3-phenyl-1-(6-(pyridin-3-yl)-5,6-dihydropyridin-1(2H)-yl)propan-2-yl)benzamide], the IC50 stood at 159 nM.

Regarding `CCCC(=O)Nc1ccc(C(=O)N[C@@H](Cc2ccccc2)C(=O)N2CC=CCC2c2cccnc2)cc1` (stereo partly drawn) [Compound 48, 4-butyramido-N-((2S)-1-oxo-3-phenyl-1-(6-(pyridin-3-yl)-5,6-dihydropyridin-1(2H)-yl)propan-2-yl)benzamide], the IC50 came out at 114 nM.

For `O=C(N[C@@H](Cc1ccccc1)C(=O)N1CC=CCC1c1cccnc1)c1ccc2ccccc2n1` (stereo partly drawn) [Compound 49, N-((2S)-1-oxo-3-phenyl-1-(6-(pyridin-3-yl)-5,6-dihydropyridin-1(2H)-yl)propan-2-yl)quinoline-2-carboxamide], the IC50 came to 174 nM.

Regarding `O=C(N[C@@H](Cc1ccccc1)C(=O)N1CC=CCC1c1cccnc1)c1cnccn1` (stereo partly drawn) [Compound 50, N-((2S)-1-oxo-3-phenyl-1-(6-(pyridin-3-yl)-5,6-dihydropyridin-1(2H)-yl)propan-2-yl)pyrazine-2-carboxamide], the IC50 was 131 nM.

With `O=C(N[C@@H](Cc1ccccc1)C(=O)N1CC=CCC1c1cccnc1)c1cccnc1` (stereo partly drawn) [Compound 51, N-((2S)-1-oxo-3-phenyl-1-(6-(pyridin-3-yl)-5,6-dihydropyridin-1(2H)-yl)propan-2-yl)nicotinamide], the IC50 amounted to 114 nM.

For `O=C(N[C@@H](Cc1ccccc1)C(=O)N1CC=CCC1c1cccnc1)c1ccco1` (stereo partly drawn) [Compound 52, N-((2S)-1-oxo-3-phenyl-1-(6-(pyridin-3-yl)-5,6-dihydropyridin-1(2H)-yl)propan-2-yl)furan-2-carboxamide], the IC50 was 134 nM.

For the compound `NCC(=O)Nc1cccc(C(=O)N[C@@H](Cc2ccccc2)C(=O)N2CC=CCC2c2cccnc2)c1` (stereo partly drawn) [Compound 53, 3-(2-aminoacetamido)-N-((2S)-1-oxo-3-phenyl-1-(6-(pyridin-3-yl)-5,6-dihydropyridin-1(2H)-yl)propan-2-yl)benzamide hydrochloride], the IC50 is 212 nM.

Consider `NCCC(=O)Nc1cccc(C(=O)N[C@@H](Cc2ccccc2)C(=O)N2CC=CCC2c2cccnc2)c1` (stereo partly drawn) [Compound 54, 3-(3-aminopropanamido)-N-((2S)-1-oxo-3-phenyl-1-(6-(pyridin-3-yl)-5,6-dihydropyridin-1(2H)-yl)propan-2-yl)benzamide hydrochloride], for which the IC50 amounted to 186 nM.

Turning to `NCCCC(=O)Nc1cccc(C(=O)N[C@@H](Cc2ccccc2)C(=O)N2CC=CCC2c2cccnc2)c1` (stereo partly drawn) [Compound 55, 3-(4-aminobutanamido)-N-((2S)-1-oxo-3-phenyl-1-(6-(pyridin-3-yl)-5,6-dihydropyridin-1(2H)-yl)propan-2-yl)benzamide hydrochloride], the IC50 was found to be 170 nM.

For the compound `O=C(N[C@@H](Cc1ccccc1)C(=O)N1CC=CCC1c1cccnc1)c1ccc[nH]1` (stereo partly drawn) [Compound 56, N-((2S)-1-oxo-3-phenyl-1-(6-(pyridin-3-yl)-5,6-dihydropyridin-1(2H)-yl)propan-2-yl)-1H-pyrrole-2-carboxamide], the IC50 stood at 968 nM.

Take `CC[C@H](C)C(=O)Nc1cccc(C(=O)N[C@@H](Cc2ccccc2)C(=O)N2CC=CCC2c2cccnc2)c1` (stereo partly drawn) [Compound 57, 3-((S)-2-methylbutanamido)-N-((2S)-1-oxo-3-phenyl-1-(6-(pyridin-3-yl)-5,6-dihydropyridin-1(2H)-yl)propan-2-yl)benzamide]: the IC50 was 121 nM.

For the compound `CC[C@@H](C)C(=O)Nc1cccc(C(=O)N[C@@H](Cc2ccccc2)C(=O)N2CC=CCC2c2cccnc2)c1` (stereo partly drawn) [Compound 58, 3-((R)-2-methylbutanamido)-N-((2S)-1-oxo-3-phenyl-1-(6-(pyridin-3-yl)-5,6-dihydropyridin-1(2H)-yl)propan-2-yl)benzamide], the IC50 stood at 185 nM.

As for `CCCCNc1cccc(C(=O)N[C@@H](Cc2ccccc2)C(=O)N2CC=CCC2c2cccnc2)c1` (stereo partly drawn) [Compound 60, 3-(butylamino)-N-((2S)-1-oxo-3-phenyl-1-(6-(pyridin-3-yl)-5,6-dihydropyridin-1(2H)-yl)propan-2-yl)benzamide], the IC50 is 216 nM.
